Laboratory results reported in patent publication US20050107289A1, “Anti-microbial peptides and compositions” (priority 2001, published 2005).
In brackets after ≈: the same amount, converted by molar mass. Marks after values point to notes of the source that are not given here. Non-standard residues stand in square brackets, D forms with d. Residues, ends and D or L forms follow the SMILES beside them.

Assays:
[1] = tested on: S. aureus (MRSA) ATCC 33591; assay type: cell-based, Staphylococcus aureus
Outline: (§1)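 MICs come from NCCLS-style (M7-A4) dilution testing, mostly microdilution, with an inoculum near 2.5×10^5 cfu/ml from 4000-fold-diluted overnight cultures. Peptide series were 2-fold steps spanning roughly 400–2 μg/ml, prepared in 9% aqueous sucrose with 5% DMSO.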

[2] = tested on: Streptococcus pneumoniea erythromycin- and ampicillin-resistant clinical isolate; assay type: cell-based, Streptococcus pneumoniae; conditions: data from MDS Panlabs
Description: (§2) The antimicrobial activity of the peptides was determined using a broth dilution assay essentially as descried in the guidelines of the National Committee for […] (NCCLS) [National Committee for Clinical Laboratory Standards. Methods for dilution antimicrobial susceptibility tests for bacteria that grow aerobically. Fourth edition. Approved Standard (1997). Document M7-A4. […] The microdilution method has the advantages of requiring less amount of peptide for each assay and the possibility of multiple simultaneous inoculations and was used in most studies. Several of the strains of bacteria tested are further described in Table 3.

[3] = tested on: Bacillus subtilis ATCC 43223; test: MIC, Bacillus subtilis; assay type: cell-based; conditions: data from MDS Panlabs Pharmacology Services
Description: as §2

[4] = tested on: Listeria monocytogenes ATCC19115; test: MIC, Listeria monocytogenes; assay type: cell-based
Description: as §2
(§3) Preparation of peptide solutions. Stock peptide solutions were prepared in 5% DMSO in aq. sucrose (9%). Determination of peptide concentrations was done by quantitative HPLC analysis using known concentrations of internal standards and/or by measuring UV absorption of tryptophane-containing peptide solutions in H2O (λ=280 εTrp: 5690). Serial 2-fold dilutions were made in the above DMSO/aq. sucrose (9%) mixture with concentrations ranging approximately 400-2 μg/ml and aliquots were dispensed in test tubes (100 μl) for the macrodilution test or in microtiter plates (20 μl) for the microdilution assays.
(§4) Inoculum preparation. […]

[5] = tested on: vancomycin-resistant Enterococus faecalis (VRE)(ATCC 51575); assay type: cell-based, Enterococcus faecalis; set-up: key to VRE (in vitro activity): peptide concentration in μg/ml (broth dilution assay)
Outline: as §1

[6] = tested on: Streptococcus pneumoniae (ATCC 6301); assay type: cell-based
Outline: as §1

[7] = tested on: Bacillus cereus ATCC 11778; assay type: cell-based
Outline: as §1

murine red blood cells = test: Red blood cell hemolysis; assay type: cell-based, mouse
Outline: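 Hemolysis read as A560 of supernatant, scaled between saline (0%) and 1% Triton X-100 (100%) controls; peptides were serially diluted onto 5% murine red cells in saline plus 10% FBS and incubated 30 min at 37° C.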

[8] = tested on: Enterococcus faecalis vancomycin-resistant clinical isolate; assay type: cell-based; conditions: data from MDS Panlabs
Description: as §2

[9] = Cytotoxicity to M21 melanoma cells; assay type: cell-based; conditions: human, read-out: M21 (melanoma) LD50
E. coli JM109(DE3) = assay type: cell-based, Escherichia coli; conditions: JM109
Outline: as §1

[10] = tested on: Salmonella typhimurium ATCC 14028; test: MIC, Salmonella typhimurium; assay type: cell-based
Description: as §2, §3, §4

[11] = tested on: Staphylococcus aureus ATCC25923; test: MIC, Staphylococcus aureus ATCC25923; assay type: cell-based; conditions: data from MDS Panlabs Pharmacology Services
Description: as §2

Question: Which MRSA MIC ([1]; ATCC 33591) does the source give for CC(C)C[C@@H]1NC(=O)[C@@H](Cc2c[nH]c3ccccc23)NC(=O)[C@H](CCCNC(=N)N)NC(=O)[C@@H](CCC(N)=O)NC(=O)[C@H](CCCCN)NC(=O)[C@@H](Cc2c[nH]c3ccccc23)NC(=O)[C@H](CC(C)C)NC(=O)[C@@H](Cc2c[nH]c3ccccc23)NC1=O [SEQ ID NO:9, cyclo-[Lys-D-Gln-Arg-D-Trp-Leu-D-Trp-Leu-D-Trp]] (cyclo(K[dQ]R[dW]L[dW]L[dW])) here?
Answer: 12 µg/mL

Question: And the “S. aureus (MRSA) MIC” value ([1]; ATCC 33591)?
Answer: 8 µg/mL

Question: And the “MRSA (in vitro activity)” value ([1]; Table 9, media a: anti-microbial media-3 (AM-3))?
Answer: 12

Question: What about the “MIC Streptococcus pneumoniea” value [2] of the same molecule?
Answer: 10^b μg/ml

Question: What about the “MIC Bacillus subtilis” value [3] of the same molecule?
Answer: 3^b μg/ml

Question: What about the “MIC Listeria monocytogenes” value [4] of the same molecule?
Answer: 20 µg/mL (≈ 16.7 µM)

Question: What about the VRE MIC ([5]; ATCC 51575) of the same molecule?
Answer: 12 µg/mL

Question: And the “VRE (in vitro activity)” value ([5]; Table 9, media a: AM-3)?
Answer: 12

Question: And the S. pneum. MIC [6]?
Answer: 4 µg/mL

Question: And the B. cerius MIC [7]?
Answer: 3 µg/mL

Question: And the “MIC Bacillus cereus” value [7]?
Answer: 2 µg/mL (≈ 1.67 µM)

Question: And the “RBC Hemolysis (HD50)” value (murine red blood cells)?
Answer: 40

Question: What about the “Red blood cell (mouse) HD50” value (murine red blood cells) of the same molecule?
Answer: 45^j μg/ml

Question: What about the “MIC Enterococcus faecalis” value [8] of the same molecule?
Answer: 10^b μg/ml

Question: What about the CC50 [9] of the same molecule?
Answer: > 75 µg/mL

Question: What about the “E. coli MIC” value (E. coli JM109(DE3)) of the same molecule?
Answer: 80 µg/mL

Question: What about the “MIC Salmonella typhimurium” value [10] of the same molecule?
Answer: >70 µg/mL

Question: And the “MIC Staphylococcus aureus” value [11]?
Answer: 3^b μg/ml
